According to patent publication US4110327A, “2,3 Diketo-piperazinocarbonylamino alkanoic acids and derivatives” (Toyama Chemical Co., Ltd., priority 1974, dated 1978):

Legend:
Escherichia coli NIHJ = assay: MIC against standard strain, plate method; assay type: cell-based; settings: unit assumed
Outline: (§1)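 Heart infusion agar (pH 7.4) plates; inoculum 10^4 cells/plate (10^6 cells/ml suspension); MIC read by plate method.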

Klebsiella pneumoniae [1] = assay: MIC against standard strain, plate method; assay type: cell-based; settings: unit assumed
Outline: as §1

Proteus vulgaris 3027 = assay: MIC against standard strain, plate method; assay type: cell-based; settings: Proteus vulgaris 3027, standard strain; unit assumed
Outline: as §1

[2] = system: Staphylococcus aureus 209p; assay: MIC against standard strain, plate method; assay type: cell-based; settings: unit assumed
Outline: as §1

Staphylococcus aureus = assay: MIC against clinical isolates; assay type: cell-based; settings: unit assumed
Escherichia coli = assay: MIC against clinical isolates; assay type: cell-based; settings: unit assumed
Pseudomonas aeruginosa = assay: MIC against clinical isolates; assay type: cell-based; settings: unit assumed
Klebsiella pneumoniae [3] = assay: MIC against clinical isolates; assay type: cell-based; settings: unit assumed
Shigella flexneri = assay: MIC against clinical isolates; assay type: cell-based; settings: unit assumed
Experimental: (§2) The minimum inhibitory concentrations (MIC) was determined by the plate method disclosed in "Chemotherapy" (Japan), Vol. 16, (1968), pages 98 - 99. The culture medium used was a Heart infusion agar (pH 7.4). The number of the cells per plate used in the inoculum as 10^4 (10^6 cells/ml).
(§3) MIC was determined in the same manner as in the preceding paragraph (1).

Shigella sonnei = assay: MIC against clinical isolates; assay type: cell-based; settings: unit assumed
Experimental: as §2, §3

Salmonella typhi = assay: MIC against clinical isolates; assay type: cell-based; settings: unit assumed
Salmonella typhi-murium = assay: MIC against clinical isolates; assay type: cell-based; settings: unit assumed
Proteus mirabilis = assay: MIC against clinical isolates; assay type: cell-based; settings: clinical isolate, unit assumed
Proteus morganii = assay: MIC against clinical isolates; assay type: cell-based; settings: clinical isolate, unit assumed
Proteus vulgaris = assay: MIC against clinical isolates; assay type: cell-based; settings: clinical isolate, unit assumed
β-lactamase = assay: Resistant activity against β-lactamase, iodometric assay; assay type: biochemical, Pseudomonas aeruginosa GN 238; settings: relative to Potassium Penicillin G = 100
Experimental: (3) Resistant activity against β-lactamase, Pseudomonas aergionan GN 238:
The resistant activity of each compound against β-lactamase was measured in the manner described below.
β-Lactamase was prepared from Pseudomonas aeruginosa GN 238. This microorganism was cultured in 100 ml of a medium containing 2 g of yeast extract, 10 g of polypeptone, 2 g of glucose, 7 g of disodium hydrogen phosphate, 2 g of potassium dihydrogen phosphate, 1.2 g of ammonium sulfate and 0.4 g of magnesium sulfate, per liter, in a 500-ml Erlenmeyer flask for 6 hrs. at 37° C with shaking. The resulting cells were collected by centrifugation (5,000 r.p.m. × 10 min.), washed three times with 0.1 M phosphate buffer (pH 7.0). Subsequently, the cells were subjected to sonication (20 KHz, 20 min.) and then centrifuged at 15,000 r.p.m. for 60 min. By using the supernatant of enzyme fluid, the resistance of each compound against β-lactamase was determined by the iodometric assay method. Each numeral shown in Table 7 is a relative activity value calculated by assuming as 100 the activity of the control Potassium Penicillin G.

[4] = system: Pseudomonas aeruginosa I.F.O.; assay: MIC against standard strain, plate method; assay type: cell-based; settings: unit assumed
Outline: as §1

Proteus rettgeri = assay: MIC against clinical isolates; assay type: cell-based; settings: clinical isolate, unit assumed

CC(C)N1CCN(C(=O)N[C@@H](C(=O)N[C@@H]2C(=O)N3[C@@H]2SC(C)(C)[C@@H]3C(=O)O)c2ccccc2)C(=O)C1=O (single isomer, unassigned) [compound 40]
100 µg/mL: MIC (Klebsiella pneumoniae [3]; clinical isolate GN 4081)
6.25 µg/mL: MIC (Salmonella typhi-murium; clinical isolate SL 858)
< 0.4 µg/mL: MIC (Proteus mirabilis) | MIC (Proteus vulgaris)
< 0.1 µg/mL: MIC (Escherichia coli NIHJ)
50 µg/mL: MIC (Escherichia coli; clinical isolate GN 3465) | MIC (Klebsiella pneumoniae [3]; clinical isolate GN 4117) | MIC (Shigella flexneri; clinical isolate JS 11215) | MIC (Shigella sonnei; clinical isolate JS 11232)
15%: Relative activity (β-lactamase)
0.4 µg/mL: MIC (Proteus vulgaris 3027) | MIC [2]
1.57 µg/mL: MIC (Salmonella typhi; clinical isolate SL 819) | MIC (Salmonella typhi; clinical isolate SL 2169)
25 µg/mL: MIC (Pseudomonas aeruginosa; clinical isolate GN 1035) | MIC (Pseudomonas aeruginosa; clinical isolate S-2) | MIC (Pseudomonas aeruginosa; clinical isolate S-3)
3.13 µg/mL: MIC (Klebsiella pneumoniae [1]) | MIC (Staphylococcus aureus; clinical isolate F-2) | MIC (Staphylococcus aureus; clinical isolate MS 8588) | MIC (Staphylococcus aureus; clinical isolate MS 8596) | MIC (Staphylococcus aureus; clinical isolate MS 8684) | MIC (Escherichia coli; clinical isolate K-2) | MIC (Pseudomonas aeruginosa; clinical isolate GN 376) | MIC (Pseudomonas aeruginosa; clinical isolate GN 2987) | MIC (Shigella flexneri; clinical isolate JS 11839) | MIC (Shigella sonnei; clinical isolate JS 11755)
0.79 µg/mL: MIC (Staphylococcus aureus; clinical isolate F-3) | MIC (Staphylococcus aureus; clinical isolate MS 8619) | MIC (Escherichia coli; clinical isolate GN 3435) | MIC (Escherichia coli; clinical isolate K-4) | MIC (Proteus morganii)
> 200 µg/mL: MIC (Staphylococcus aureus; clinical isolate F-5) | MIC (Escherichia coli; clinical isolate GN 3611) | MIC (Escherichia coli; clinical isolate K-3) | MIC (Salmonella typhi-murium; clinical isolate SL 2136)
12.5 µg/mL: MIC (Staphylococcus aureus; clinical isolate MS 8713) | MIC (Pseudomonas aeruginosa; clinical isolate GN 2565) | MIC (Pseudomonas aeruginosa; clinical isolate S-1) | MIC (Pseudomonas aeruginosa; clinical isolate S-4) | MIC (Klebsiella pneumoniae [3]; clinical isolate GN 3850)

CC1(C)S[C@@H]2[C@H](NC(=O)C(c3ccccc3)S(=O)(=O)O)C(=O)N2[C@H]1C(=O)O (stereo partly drawn) [Sodium Sulbenicillin, SodiumSulbenicillin, reference compound]
100 µg/mL: MIC (Pseudomonas aeruginosa; clinical isolate GN 1035) | MIC (Pseudomonas aeruginosa; clinical isolate GN 2565) | MIC (Pseudomonas aeruginosa; clinical isolate S-1) | MIC (Pseudomonas aeruginosa; clinical isolate S-2) | MIC (Pseudomonas aeruginosa; clinical isolate S-3) | MIC (Pseudomonas aeruginosa; clinical isolate S-4)
3.13 µg/mL: MIC [2] | MIC (Staphylococcus aureus; clinical isolate F-2) | MIC (Staphylococcus aureus; clinical isolate MS 8588) | MIC (Staphylococcus aureus; clinical isolate MS 8596) | MIC (Staphylococcus aureus; clinical isolate MS 8619) | MIC (Staphylococcus aureus; clinical isolate MS 8684) | MIC (Staphylococcus aureus; clinical isolate MS 8713)
50%: Relative activity (β-lactamase)
12.5 µg/mL: MIC (Escherichia coli; clinical isolate GN 3452) | MIC (Escherichia coli; clinical isolate GN 3481) | MIC (Escherichia coli; clinical isolate K-2)
> 200 µg/mL: MIC (Klebsiella pneumoniae [1]) | MIC (Staphylococcus aureus; clinical isolate F-5) | MIC (Escherichia coli; clinical isolate GN 3465) | MIC (Escherichia coli; clinical isolate GN 3611) | MIC (Escherichia coli; clinical isolate K-3) | MIC (Klebsiella pneumoniae [3]; clinical isolate GN 917) | MIC (Klebsiella pneumoniae [3]; clinical isolate GN 3850) | MIC (Klebsiella pneumoniae [3]; clinical isolate GN 4081) | MIC (Klebsiella pneumoniae [3]; clinical isolate GN 4117) | MIC (Proteus rettgeri)
0.79 µg/mL: MIC (Proteus vulgaris 3027) | MIC (Proteus mirabilis)
25 µg/mL: MIC (Pseudomonas aeruginosa; clinical isolate GN 221) | MIC (Pseudomonas aeruginosa; clinical isolate GN 2987)
< 0.4 µg/mL: MIC (Proteus morganii) | MIC (Proteus vulgaris)
50 µg/mL: MIC [4] | MIC (Pseudomonas aeruginosa; clinical isolate GN 82) | MIC (Pseudomonas aeruginosa; clinical isolate GN 163) | MIC (Pseudomonas aeruginosa; clinical isolate GN 376) | MIC (Pseudomonas aeruginosa; clinical isolate GN 383) | MIC (Pseudomonas aeruginosa; clinical isolate GN 1091) | MIC (Pseudomonas aeruginosa; clinical isolate GN (number not given; Table 5-3))
